Laboratory results from PubChem BioAssay (NCI).
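The compound was tested at five concentrations on cells cultured in 96-well plates, with a 48-hour exposure period. Definition used: TGI = concentration required for complete inhibition of growth.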

Key:
Test in all cases: NCI tumour cell line growth inhibition, 48 h
CAKI-1 renal = system: CAKI-1 renal
NCI/ADR-RES ovarian = system: NCI/ADR-RES ovarian
HOP-62 NSCLC = system: HOP-62 NSCLC
BT-549 breast = system: BT-549 breast
SW-620 colon = system: SW-620 colon
A549 NSCLC = system: A549 NSCLC
SR leukemia = system: SR leukemia
SK-MEL-28 melanoma = system: SK-MEL-28 melanoma
DU-145 prostate = system: DU-145 prostate
NCI-H460 lung = system: NCI-H460 lung

Structure (SMILES) | TGI (CAKI-1 renal) [µM] | TGI (NCI/ADR-RES ovarian) [µM] | TGI (HOP-62 NSCLC) [µM] | TGI (BT-549 breast) [µM] | TGI (SW-620 colon) [µM] | TGI (A549 NSCLC) [µM] | TGI (SR leukemia) [µM] | TGI (SK-MEL-28 melanoma) [µM] | TGI (DU-145 prostate) [µM] | TGI (NCI-H460 lung) [µM]
Cc1cc2c(cc1Cl)SSc1cc(Cl)c(C)cc1S(=O)(=O)Nc1nc(N)nn1C(O)n1nc(N)nc1NS2(=O)=O | > 10 | > 10 | > 10 | > 10 | > 10 | > 10 | > 10 | > 10 | > 10 | > 10
C[N+](C)(N)Cc1nc(-c2ccc(Cl)cc2)no1 | > 100 | > 100 | > 100 | > 100 | > 100 | > 100 | > 100 | > 100 | > 100 | > 100
